# Earlier results as cited in US11331329B2, “Fucosylated oligosaccharides for prevention of coronavirus infection” (Glycosyn LLC, priority 2020, dated 2022).
# Settings: oral
substance,measurement,setting,value
2′-Fucosyllactose [2′-FL],toxicity,natural component of human milk,non-toxic
same,high doses that may lead to mild gut discomfort and a reversible osmotic diarrhea,adult,> 10 g per day
